Measured values from the supplement of paper PMC10307832.

What was measured:
Test in all cases: relative viability (nuclei count vs DMSO), 5 days (fraction); higher = more cells survive
Bleomycin = compound: CC1=C(N=C(N=C1N)[C@H](CC(=O)N)NC[C@@H](C(=O)N)N)C(=O)N[C@@H]([C@H](C2=CN=CN2)OC3C(C(C(C(O3)CO)O)O)OC4C(C(C(C(O4)CO)O)OC(=O)N)O)C(=O)N[C@H](C)[C@H]([C@H](C)C(=O)N[C@@H]([C@@H](C)O)C(=O)NCCC5=NC(=CS5)C6=NC(=CS6)C(=O)NCCC[S+](C)C)O [Bleomycin]; details: main component drawn
How it was run: (§1)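 Viability was read as treated-well nuclei divided by vehicle-well nuclei, using the median across plates. Lung cancer cell lines in 1536-well plates were kept overnight at 37 °C, pinned with five √10-spaced library-drug doses, and after 5 days were Hoechst-stained, imaged at 4× and counted in MetaXpress. Plates passed only with control CV below 25% and at least one doubling.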

Etoposide = compound: COc1cc([C@@H]2c3cc4c(cc3[C@@H](O[C@@H]3O[C@@H]5CO[C@@H](C)O[C@H]5[C@H](O)[C@H]3O)[C@H]3COC(=O)[C@H]23)OCO4)cc(OC)c1O [Etoposide]
How it was run: as §1

Bleomycin + Decitabine = compound: CC1=C(N=C(N=C1N)[C@H](CC(=O)N)NC[C@@H](C(=O)N)N)C(=O)N[C@@H]([C@H](C2=CN=CN2)OC3C(C(C(C(O3)CO)O)O)OC4C(C(C(C(O4)CO)O)OC(=O)N)O)C(=O)N[C@H](C)[C@H]([C@H](C)C(=O)N[C@@H]([C@@H](C)O)C(=O)NCCC5=NC(=CS5)C6=NC(=CS6)C(=O)NCCC[S+](C)C)O [Bleomycin] + Nc1ncn([C@H]2C[C@H](O)[C@@H](CO)O2)c(=O)n1 [Decitabine] (partner 2 µM); details: main component drawn
How it was run: (§2)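 The day after seeding in 1536-well plates, lung cancer cell lines were treated by pin tool with a single drug, or with a fixed anchor-drug dose together with five library-drug doses (not always all listed) in √10 steps. After 5 days, a combined fix-and-stain solution (final 0.05% Triton X-100, 1% formaldehyde, 1 ug/ml Hoechst) was added. Nuclei counted on 4× images gave relative viability as treated counts over vehicle counts, reported as the median of duplicate plates.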

Bleomycin + Vorinostat = compound: CC1=C(N=C(N=C1N)[C@H](CC(=O)N)NC[C@@H](C(=O)N)N)C(=O)N[C@@H]([C@H](C2=CN=CN2)OC3C(C(C(C(O3)CO)O)O)OC4C(C(C(C(O4)CO)O)OC(=O)N)O)C(=O)N[C@H](C)[C@H]([C@H](C)C(=O)N[C@@H]([C@@H](C)O)C(=O)NCCC5=NC(=CS5)C6=NC(=CS6)C(=O)NCCC[S+](C)C)O [Bleomycin] + O=C(CCCCCCC(=O)Nc1ccccc1)NO [Vorinostat] (partner 1 µM); details: main component drawn
How it was run: as §2

## UMC-11
Bleomycin; 0.01 µM
  relative viability: 0.936
Bleomycin; 0.03162 µM
  relative viability: 0.918
Bleomycin; 0.1 µM
  relative viability: 0.922
Bleomycin; 0.3162 µM
  relative viability: 0.769
Bleomycin; 1 µM
  relative viability: 0.496
Etoposide; 0.01 µM
  relative viability: 0.999
Etoposide; 0.03162 µM
  relative viability: 1.06
Etoposide; 0.1 µM
  relative viability: 0.507
Etoposide; 0.3162 µM
  relative viability: 0.607
Etoposide; 1 µM
  relative viability: 0.343
Bleomycin + Decitabine; first compound 0.01 µM
  relative viability: 0.493
Bleomycin + Decitabine; first compound 0.03162 µM
  relative viability: 0.509
Bleomycin + Decitabine; first compound 0.1 µM
  relative viability: 0.473
Bleomycin + Decitabine; first compound 0.3162 µM
  relative viability: 0.528
Bleomycin + Decitabine; first compound 1 µM
  relative viability: 0.404
Bleomycin + Vorinostat; first compound 0.01 µM
  relative viability: 0.364
Bleomycin + Vorinostat; first compound 0.03162 µM
  relative viability: 0.346
Bleomycin + Vorinostat; first compound 0.1 µM
  relative viability: 0.311
Bleomycin + Vorinostat; first compound 0.3162 µM
  relative viability: 0.278
Bleomycin + Vorinostat; first compound 1 µM
  relative viability: 0.232
